According to ChEMBL document CHEMBL1201862, “PubChem BioAssay data set” (2004):
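Dose response: 5 concentrations. Exposure: 48 h. Format: 96-well plates. Endpoint: linear interpolation; highest concentration if not reached. At the GI50, growth is halved.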 Activity calls are given as the source filed them. Cut-off read from the data, not from the text of the source: active = GI50 up to about 1.1 µM and inactive = higher.

What was measured:
Assay in all cases: DTP human tumour cell line panel, 48 h
SW-620 = test system: SW-620
SF-268 = test system: SF-268
M19-MEL = test system: M19-MEL
KM-20L2 = test system: KM-20L2
U-251 = test system: U-251
DMS-114 = test system: DMS-114
786-0 = test system: 786-0
HCT-116 = test system: HCT-116
SN12C = test system: SN12C
A549 = test system: A549
XF498 = test system: XF498
OVCAR-4 = test system: OVCAR-4
UO-31 = test system: UO-31
DMS-273 = test system: DMS-273
M14 = test system: M14
KM12 = test system: KM12
SF-295 = test system: SF-295
Malme-3M = test system: Malme-3M
HOP-92 = test system: HOP-92
K562 = test system: K562
NCI-H460 = test system: NCI-H460
SK-MEL-2 = test system: SK-MEL-2
SK-OV-3 = test system: SK-OV-3
RXF 393 = test system: RXF 393
A498 = test system: A498
TK-10 = test system: TK-10
RXF 631 = test system: RXF 631
UACC-62 = test system: UACC-62
SNB-78 = test system: SNB-78
SK-MEL-28 = test system: SK-MEL-28
SNB-19 = test system: SNB-19
UACC-257 = test system: UACC-257
IGROV-1 = test system: IGROV-1
HCC 2998 = test system: HCC 2998
SF-539 = test system: SF-539
HT-29 = test system: HT-29
ACHN = test system: ACHN
COLO 205 = test system: COLO 205
NCI-H522 = test system: NCI-H522
SR = test system: SR
EKVX = test system: EKVX
SNB-75 = test system: SNB-75
HCT-15 = test system: HCT-15
MOLT-4 = test system: MOLT-4
OVCAR-5 = test system: OVCAR-5
SK-MEL-5 = test system: SK-MEL-5
HOP-62 = test system: HOP-62
NCI-H23 = test system: NCI-H23
DLD-1 = test system: DLD-1
OVCAR-8 = test system: OVCAR-8
LXFL 529 = test system: LXFL 529
HOP-18 = test system: HOP-18
NCI-H226 = test system: NCI-H226
CAKI-1 = test system: CAKI-1
CCRF-CEM = test system: CCRF-CEM
OVCAR-3 = test system: OVCAR-3
HL-60 = test system: HL-60
RPMI-8226 = test system: RPMI-8226
LOX IMVI = test system: LOX IMVI

Measured: GI50

CSc1s[s+]c(SC)c1[O-]
inactive: SW-620 17.8 µM | SF-268 20.9 µM | M19-MEL 15.5 µM | KM-20L2 80.7 µM | U-251 26.7 µM | DMS-114 17.5 µM | 786-0 16.5 µM | HCT-116 17.1 µM | SN12C 22.1 µM | A549 > 100 µM | XF498 45.8 µM | OVCAR-4 51.2 µM | UO-31 > 100 µM | DMS-273 27.4 µM | M14 17.5 µM | KM12 62.4 µM | SF-295 47.9 µM | Malme-3M 16.6 µM | HOP-92 33 µM | K562 3.94 µM | NCI-H460 29.3 µM | SK-MEL-2 32.3 µM | SK-OV-3 > 100 µM | RXF 393 21.2 µM | A498 > 100 µM | TK-10 > 100 µM | RXF 631 19.2 µM | UACC-62 14.4 µM | SNB-78 55.1 µM | SK-MEL-28 17.1 µM | SNB-19 > 100 µM | UACC-257 17.7 µM | IGROV-1 83.6 µM | HCC 2998 > 100 µM | SF-539 20.6 µM | HT-29 24.7 µM | ACHN 38.4 µM | COLO 205 27.2 µM | NCI-H522 15.7 µM | SR 9.95 µM | EKVX 75.7 µM | SNB-75 38.6 µM | MOLT-4 13.3 µM | OVCAR-5 > 100 µM | SK-MEL-5 90.6 µM | HOP-62 > 100 µM | NCI-H23 20.5 µM | DLD-1 16.5 µM | OVCAR-8 20.1 µM | LXFL 529 18.7 µM | HOP-18 > 100 µM | NCI-H226 > 100 µM | CAKI-1 20.7 µM | CCRF-CEM 8.77 µM | OVCAR-3 26.5 µM | HL-60 17.4 µM
32.9 µM: HCT-15

CCCCN(CCCC)CC(C(C)=O)C(c1ccccc1)c1c(O)c2ccccc2oc1=O (stereo unspecified)
inactive: SW-620 > 100 µM | SF-268 > 100 µM | M19-MEL > 100 µM | KM-20L2 > 100 µM | U-251 > 100 µM | DMS-114 91 µM | 786-0 > 100 µM | HCT-116 > 100 µM | SN12C > 100 µM | A549 > 100 µM | XF498 > 100 µM | OVCAR-4 > 100 µM | DMS-273 > 100 µM | M14 > 100 µM | KM12 > 100 µM | SF-295 > 100 µM | Malme-3M > 100 µM | HOP-92 28 µM | K562 > 100 µM | NCI-H460 > 100 µM | RPMI-8226 > 100 µM | SK-MEL-2 > 100 µM | SK-OV-3 > 100 µM | RXF 393 84.7 µM | LOX IMVI > 100 µM | TK-10 > 100 µM | RXF 631 > 100 µM | UACC-62 > 100 µM | SNB-78 > 100 µM | SK-MEL-28 > 100 µM | SNB-19 > 100 µM | UACC-257 > 100 µM | IGROV-1 > 100 µM | HCC 2998 > 100 µM | SF-539 > 100 µM | HT-29 > 100 µM | ACHN > 100 µM | COLO 205 > 100 µM | NCI-H522 > 100 µM | SR > 100 µM | EKVX > 100 µM | SNB-75 19.3 µM | MOLT-4 > 100 µM | OVCAR-5 > 100 µM | SK-MEL-5 > 100 µM | HOP-62 > 100 µM | NCI-H23 > 100 µM | DLD-1 > 100 µM | OVCAR-8 > 100 µM | LXFL 529 > 100 µM | HOP-18 > 100 µM | NCI-H226 > 100 µM | CAKI-1 > 100 µM | CCRF-CEM > 100 µM | OVCAR-3 > 100 µM | HL-60 > 100 µM
> 100 µM: HCT-15

Nc1nc(CCC(=O)Nc2cccc(C(F)(F)F)c2)cc(-c2cccc3ccccc23)n1
> 100 µM: HCT-15
inactive: SW-620 > 100 µM | SF-268 > 100 µM | M19-MEL > 100 µM | KM-20L2 > 100 µM | U-251 > 100 µM | DMS-114 > 100 µM | 786-0 > 100 µM | HCT-116 > 100 µM | SN12C > 100 µM | A549 > 100 µM | XF498 > 100 µM | OVCAR-4 > 100 µM | UO-31 > 100 µM | DMS-273 > 100 µM | M14 > 100 µM | KM12 > 100 µM | SF-295 > 100 µM | Malme-3M > 100 µM | K562 > 100 µM | NCI-H460 > 100 µM | SK-MEL-2 > 100 µM | SK-OV-3 > 100 µM | RXF 393 > 100 µM | A498 > 100 µM | LOX IMVI > 100 µM | TK-10 > 100 µM | RXF 631 > 100 µM | UACC-62 > 100 µM | SNB-78 > 100 µM | SK-MEL-28 > 100 µM | SNB-19 > 100 µM | UACC-257 > 100 µM | IGROV-1 > 100 µM | HCC 2998 > 100 µM | SF-539 > 100 µM | HT-29 > 100 µM | ACHN > 100 µM | COLO 205 > 100 µM | NCI-H522 > 100 µM | SR > 100 µM | EKVX > 100 µM | SNB-75 > 100 µM | MOLT-4 > 100 µM | OVCAR-5 > 100 µM | SK-MEL-5 > 100 µM | HOP-62 > 100 µM | NCI-H23 > 100 µM | DLD-1 > 100 µM | OVCAR-8 > 100 µM | LXFL 529 > 100 µM | HOP-18 > 100 µM | NCI-H226 > 100 µM | CAKI-1 > 100 µM | CCRF-CEM > 100 µM | OVCAR-3 > 100 µM | HL-60 > 100 µM
